Reference: patent publication US11312713B2, “Imidazo[4,5-C]quinoline derivatives as LRRK2 inhibitors” (Pfizer Inc., priority 2017, dated 2022)

Tests used:
[1] = target: LRRK2, WT (GST-tagged truncated LRRK2) (Homo sapiens, UniProt Q5S007); assay: LRRK2 kinase assay (LanthaScreen), wild type; type: biochemical; details: wild type LRRK2; LanthaScreen, LRRKtide substrate
Method: (§1) LRRK2 kinase activity was measured using Lantha Screen technology from Invitrogen. GST-tagged truncated LRRK2 from Invitrogen (Cat #PV4874) was incubated with a fluorescein-labeled peptide substrate based upon ezrin/radixin/moesin (ERM), also known as LRRKtide (Invitrogen cat #PR8976A), in the presence of a dose response of compound. Upon completion, the assay was stopped and detected with a terbium labeled anti-phospho-ERM antibody (Invitrogen, cat #PR8975A). […] Using Echo acoustic dispensing, 60 nL of compound was transferred to a low volume Corning 384-well assay plate. 3 μL of a working solution of substrate (200 nM LRRKtide, 2 mM ATP) prepared in assay buffer (50 mM HEPES, pH 7.5, 3 mM MgCl2, with 2 mM DTT and 0.01% Brij35 added fresh) was added to the 60 nL compound assay plate. The kinase reaction was started with 3 μL of a working solution of LRRK2 enzyme at a concentration of 4 μg/m L. The final reaction concentrations were 100 nM LRRKtide, 1 mM ATP, 2 μg/mL LRRK2 enzyme and a compound dose response with a top dose of 3 μM. The reaction was allowed to progress at room temperature for 30 minutes and then stopped with the addition of 6 μL of detection buffer (20 mM Tris pH 7.6, 0.01% NP-40, 6 mM EDTA with 2 nM terbium labeled antiphospho-ERM). […] All final concentrations of substrate ATP and enzyme were the same.

mutant G2019S LRRK2 = mutant G2019S LRRK2 (Homo sapiens (Human), UniProt Q5S007, G2019S); assay: LRRK2 kinase assay (LanthaScreen), G2019S mutant; type: biochemical; details: G2019S mutant LRRK2; LanthaScreen, LRRKtide substrate; read-out: LRRK2, G2019S IC50
Method: as §1

Sequence of mutant G2019S LRRK2 (Q5S007 whole entry G2019S): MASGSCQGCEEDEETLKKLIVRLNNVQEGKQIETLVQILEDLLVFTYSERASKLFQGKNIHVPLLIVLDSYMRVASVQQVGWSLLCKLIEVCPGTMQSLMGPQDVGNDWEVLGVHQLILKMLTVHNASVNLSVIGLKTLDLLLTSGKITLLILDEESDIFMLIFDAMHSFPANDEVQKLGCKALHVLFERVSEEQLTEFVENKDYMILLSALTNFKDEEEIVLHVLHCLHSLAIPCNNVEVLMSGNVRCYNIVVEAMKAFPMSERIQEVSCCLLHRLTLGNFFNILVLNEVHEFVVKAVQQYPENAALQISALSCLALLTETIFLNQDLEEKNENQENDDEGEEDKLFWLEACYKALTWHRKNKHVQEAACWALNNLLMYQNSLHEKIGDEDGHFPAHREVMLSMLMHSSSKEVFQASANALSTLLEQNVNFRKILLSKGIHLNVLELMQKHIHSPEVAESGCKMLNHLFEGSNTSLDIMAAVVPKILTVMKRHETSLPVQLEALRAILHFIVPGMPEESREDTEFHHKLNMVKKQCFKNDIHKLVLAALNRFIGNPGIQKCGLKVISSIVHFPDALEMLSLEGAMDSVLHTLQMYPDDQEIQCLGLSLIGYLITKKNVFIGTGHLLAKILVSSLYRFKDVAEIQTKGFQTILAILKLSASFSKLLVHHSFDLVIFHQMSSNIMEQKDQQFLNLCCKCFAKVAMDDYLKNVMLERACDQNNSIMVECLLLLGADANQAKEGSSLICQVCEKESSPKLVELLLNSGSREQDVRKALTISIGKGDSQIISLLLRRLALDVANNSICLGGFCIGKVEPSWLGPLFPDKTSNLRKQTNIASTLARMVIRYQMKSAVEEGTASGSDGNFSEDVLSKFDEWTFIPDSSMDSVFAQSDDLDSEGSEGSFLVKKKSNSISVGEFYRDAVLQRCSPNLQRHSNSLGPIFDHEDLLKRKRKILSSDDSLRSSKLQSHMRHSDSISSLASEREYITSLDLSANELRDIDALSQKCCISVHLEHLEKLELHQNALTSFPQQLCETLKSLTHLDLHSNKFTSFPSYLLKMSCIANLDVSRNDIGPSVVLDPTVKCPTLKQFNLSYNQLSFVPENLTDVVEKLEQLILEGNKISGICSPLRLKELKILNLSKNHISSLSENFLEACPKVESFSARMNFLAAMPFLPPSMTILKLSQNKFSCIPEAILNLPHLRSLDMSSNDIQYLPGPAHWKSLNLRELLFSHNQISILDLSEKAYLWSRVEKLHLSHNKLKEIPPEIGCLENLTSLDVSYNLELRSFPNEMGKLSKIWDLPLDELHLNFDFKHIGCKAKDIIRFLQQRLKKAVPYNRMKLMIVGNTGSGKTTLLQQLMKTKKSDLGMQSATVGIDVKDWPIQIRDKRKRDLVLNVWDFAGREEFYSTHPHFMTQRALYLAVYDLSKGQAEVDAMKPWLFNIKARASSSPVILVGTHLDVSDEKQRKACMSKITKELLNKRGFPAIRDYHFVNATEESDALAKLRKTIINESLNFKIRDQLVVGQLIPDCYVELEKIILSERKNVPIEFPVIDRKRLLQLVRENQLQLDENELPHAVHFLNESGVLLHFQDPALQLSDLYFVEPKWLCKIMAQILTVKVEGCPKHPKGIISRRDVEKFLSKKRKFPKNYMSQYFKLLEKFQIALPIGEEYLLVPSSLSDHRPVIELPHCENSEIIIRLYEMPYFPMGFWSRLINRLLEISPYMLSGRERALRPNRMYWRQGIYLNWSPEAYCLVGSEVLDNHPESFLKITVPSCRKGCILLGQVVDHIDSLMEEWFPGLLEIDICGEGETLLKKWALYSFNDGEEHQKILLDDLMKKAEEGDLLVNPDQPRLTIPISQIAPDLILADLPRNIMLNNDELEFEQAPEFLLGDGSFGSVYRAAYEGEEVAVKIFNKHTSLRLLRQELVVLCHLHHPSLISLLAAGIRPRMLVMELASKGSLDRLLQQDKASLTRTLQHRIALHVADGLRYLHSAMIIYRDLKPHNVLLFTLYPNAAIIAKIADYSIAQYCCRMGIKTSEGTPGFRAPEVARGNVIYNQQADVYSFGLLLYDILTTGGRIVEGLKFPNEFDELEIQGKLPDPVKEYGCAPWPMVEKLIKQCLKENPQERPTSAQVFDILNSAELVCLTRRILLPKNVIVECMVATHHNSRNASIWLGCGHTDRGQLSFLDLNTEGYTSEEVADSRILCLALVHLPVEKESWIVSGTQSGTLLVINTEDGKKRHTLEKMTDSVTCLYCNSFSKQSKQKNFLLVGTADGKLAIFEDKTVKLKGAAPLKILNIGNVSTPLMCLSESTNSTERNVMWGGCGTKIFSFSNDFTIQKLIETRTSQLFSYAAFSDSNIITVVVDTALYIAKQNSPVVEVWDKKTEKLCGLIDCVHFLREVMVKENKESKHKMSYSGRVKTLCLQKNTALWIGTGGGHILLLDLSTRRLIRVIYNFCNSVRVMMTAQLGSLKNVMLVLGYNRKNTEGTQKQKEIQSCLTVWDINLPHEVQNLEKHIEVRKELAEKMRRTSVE

Row | IC50 [1] [nM] | IC50 (mutant G2019S LRRK2) [nM] | Structure (SMILES)
1 | 18 | 8.4 | Cc1cc(Cc2nc3cnc4ccc(C(F)F)cc4c3n2[C@@H]2CCO[C@H](C)C2)no1 [Example 91, 8-(difluoromethyl)-2-[(5-methyl-1,2-oxazol-3-yl)methyl]-1-[(2R,4R)-2-methyltetrahydro-2H-pyran-4-yl]-1H-imidazo[4,5-c]quinoline]
2 | 25.8 | 13.2 | CC(C#N)Cc1nc2cnc3ccc(Cl)cc3c2n1[C@@H]1CCO[C@H](C)C1 (stereo partly drawn) [Example 78, 3-{8-chloro-1-[(2R,4R)-2-methyltetrahydro-2H-pyran-4-yl]-1H-imidazo[4,5-c]quinolin-2-yl}-2-methylpropanenitrile]
3 | 4.48 | 1.34 | Cc1nnn(Cc2nc3cnc4ccc(Cl)cc4c3n2C2CN(C)CC2(F)F)n1 (stereo not drawn) [Example 49, 8-chloro-1-(4,4-difluoro-1-methylpyrrolidin-3-yl)-2-[(5-methyl-2H-tetrazol-2-yl)methyl]-1H-imidazo[4,5-c]quinoline]
4 | 17.3 | 12 | Cc1cc(Cc2nc3cnc4ccc(C(F)(F)F)cc4c3n2[C@@H]2CCO[C@H](C)C2)ncn1 [Example 76, 2-[(6-methylpyrimidin-4-yl)methyl]-1-[(2R,4R)-2-methyltetrahydro-2H-pyran-4-yl]-8-(trifluoromethyl)-1H-imidazo[4,5-c]quinoline]
5 | 6.6 | 8.16 | Cc1cc(Cc2nc3cnc4ccc(Cl)cc4c3n2C2CCOC(C(F)F)C2)no1 (stereo not drawn) [Example 59, 8-chloro-1-[cis-2-(difluoromethyl)tetrahydro-2H-pyran-4-yl]-2-[(5-methyl-1,2-oxazol-3-yl)methyl]-1H-imidazo[4,5-c]quinoline]
6 | 16.9 | 13 | C[C@@H]1C[C@H](n2c(Cc3cnc(C(F)(F)F)cn3)nc3cnc4ccc(F)cc4c32)CCO1 [Example 73, 8-fluoro-1-[(2R,4R)-2-methyltetrahydro-2H-pyran-4-yl]-2-{[5-(trifluoromethyl)pyrazin-2-yl]methyl}-1H-imidazo[4,5-c]quinoline]
7 | 12.1 | 7.17 | COc1cnn(Cc2nc3cnc4ccc(Cl)cc4c3n2CC(C)(F)F)c1 [Example 72, 8-chloro-1-(2,2-difluoropropyl)-2-[(4-methoxy-1H-pyrazol-1-yl)methyl]-1H-imidazo[4,5-c]quinoline]
8 | 8.32 | 8.01 | C[C@@H]1C[C@H](n2c(Cn3cncn3)nc3cnc4ccc(C(F)(F)F)cc4c32)CCO1 [Example 66, 1-[(2R,4R)-2-methyltetrahydro-2H-pyran-4-yl]-2-(1H-1,2,4-triazol-1-ylmethyl)-8-(trifluoromethyl)-1H-imidazo[4,5-c]quinoline]
9 | 7.39 | 3.33 | C[C@@H]1C[C@H](n2c(Cc3cscn3)nc3cnc4ccc(C(F)(F)F)cc4c32)CCO1 [Example 69, 1-[(2R,4R)-2-methyltetrahydro-2H-pyran-4-yl]-2-(1,3-thiazol-4-ylmethyl)-8-(trifluoromethyl)-1H-imidazo[4,5-c]quinoline]
10 | 5 | 4.63 | COc1cnn(Cc2nc3cnc4ccc(C#N)cc4c3n2[C@@H]2CCN(C)C2)c1 [Example 36, 2-[(4-methoxy-1H-pyrazol-1-yl)methyl]-1-[(3R)-1-methylpyrrolidin-3-yl]-1H-imidazo[4,5-c]quinoline-8-carbonitrile]
11 | 6.66 | 4.4 | CN1CC(n2c(Cn3cnnn3)nc3cnc4ccc(Cl)cc4c32)C(F)(F)C1 (stereo not drawn) [Example 86, 8-chloro-1-(4,4-difluoro-1-methylpyrrolidin-3-yl)-2-(1H-tetrazol-1-ylmethyl)-1H-imidazo[4,5-c]quinoline]

Row | Structure (SMILES) | IC50 [1] [nM] | IC50 (mutant G2019S LRRK2) [nM]
12 | Cc1cnc(C(O)c2nc3cnc4ccc(Cl)cc4c3n2[C@@H]2CCO[C@H](C)C2)cn1 (single isomer, unassigned) [Example 15] | 16.3 | 18.4
